The values below come from patent US20220211704A1, “INHIBITORS OF HUMAN IMMUNODEFICIENCY VIRUS REPLICATION” (VIIV HEALTHCARE UK (No. 5) LIMITED, priority 2019, published 2022).

Data set [1] is described as follows: Compound cytotoxicity, XTT-based colorimetric assay. The data set is classed as cell-based. The note with it: human; uninfected MT2 cells, day 4, XTT. How it is done: Compound cytotoxicity and the corresponding CC50 values were determined using the same protocol as described in the antiviral assay except that uninfected cells were used. Cytotoxicity was assessed on day 4 in uninfected MT2 cells by using an XTT (2,3-bis[2-Methoxy-4-nitro-5-sulfophenyl]-2H-tetrazolium-5-carboxyanilide inner salt)-based colorimetric assay (Sigma-Aldrich, St Louis, Mo.).
(Formazan colour is commonly taken as a measure of viable cells.)

For data set [2], the system named is recombinant NL4-3 virus. As to the kind of experiment: HIV cell culture assay (Renilla luciferase reporter virus in MT-2 cells). Format: cell-based. The note with it: Human immunodeficiency virus 1, NL43, MT2. As to the method: HIV cell culture assay—MT-2 cells, 293T cells and the proviral DNA clone of NL4-3 virus were obtained from the NIH AIDS Research and Reference Reagent Program. MT-2 cells were propagated in RPMI 1640 media supplemented with 10% heat inactivated fetal bovine serum (FBS), […]. The 293T cells were propagated in DMEM media supplemented with 10% heat inactivated FBS, […]. A recombinant NL4-3 proviral clone, in which a section of the nef gene was replaced with the Renilla luciferase gene, was used to make the reference virus used in these studies. The recombinant virus was prepared through transfection of the recombinant NL4-3 proviral clone into 293T cells using Transit-293 Transfection Reagent from Mirus Bio LLC (Madison, Wis.). Supernatent was harvested after 2-3 days and the amount of virus present was titered in MT-2 cells using luciferase enzyme activity as a marker by measuring luciferase enzyme activity. Luciferase was quantitated using the EnduRen Live Cell Substrate from Promega (Madison, Wis.). Antiviral activities of compounds toward the recombinant virus were quantified by measuring luciferase activity in MT-2 cells infected for 4-5 days with the recombinant virus in the presence of serial dilutions of the compound. […]
(In general: A reporter such as luciferase makes a cellular process visible.)

`Cn1nc(NS(C)(=O)=O)c2c(Cl)ccc(-n3c([C@H](Cc4cc(F)cc(F)c4)NC(=O)Cn4nc(C(F)F)c5c4C(F)(F)C4CC54)nc4cc(C#CC(C)(C)S(C)(=O)=O)ccc4c3=O)c21` (stereo in doubt) [Example 1, N—((S)-1-(3-(4-chloro-1-methyl-3-(methylsulfonamido)-1H-indazol-7-yl)-7-(3-methyl-3-(methylsulfonyl)but-1-yn-1-yl)-4-oxo-3,4-dihydroquinazolin-2-yl)-2-(3,5-difluorophenyl)ethyl)-2-((3bS,4aR)-3-(difluoromethyl)-5,5-difluoro-3b,4,4a,5-tetrahydro-1H-cyclopropa[3,4]cyclopenta[1,2-c]pyrazol-1-yl)acetamide] gave a CC50 at 4 day in data set [1] of over 500000 pM. Further, in data set [2], the EC50 was determined as 35 pM.
In data set [1], `CC(C)(C#Cc1ccc2c(=O)n(-c3ccc(Cl)c4c(NS(=O)(=O)C5CC5)nn(CC(F)F)c34)c([C@H](Cc3cc(F)cc(F)c3)NC(=O)Cn3nc(C(F)F)c4c3C(F)(F)C3CC43)nc2c1)S(C)(=O)=O` (stereo in doubt) [Example 2, N—((S)-1-(3-(4-chloro-3-(cyclopropanesulfonamido)-1-(2,2-difluoroethyl)-1H-indazol-7-yl)-7-(3-methyl-3-(methylsulfonyl)but-1-yn-1-yl)-4-oxo-3,4-dihydroquinazolin-2-yl)-2-(3,5-difluorophenyl)ethyl)-2-((3bS,4aR)-3-(difluoromethyl)-5,5-difluoro-3b,4,4a,5-tetrahydro-1H-cyclopropa[3,4]cyclopenta[1,2-c]pyrazol-1-yl)acetamide] showed a CC50 at 4 day of over 500000 pM. In addition, the EC50 in data set [2] was found to be 47 pM.

Usually CC50 stands for the concentration that lowers cell viability or growth by half. The low end stands for harm at low concentration, the high end for better tolerance by the cells. A word on the EC50: it is the concentration giving half of the maximal effect.
